{"source": "patent US20220242851A1", "about": "“CRYSTAL FORM AND SALT OF QUINAZOLINE COMPOUND AND PREPARATION METHOD THEREOF” (SHENZHEN JINRUI FOUNDATION BIOTECH CO., LTD, priority 2019, published 2022)", "key": {"[1]": {"molecular_target": "HER1(ErbB1) (Homo sapiens, UniProt P00533)", "sequence (P00533 25-1210)": "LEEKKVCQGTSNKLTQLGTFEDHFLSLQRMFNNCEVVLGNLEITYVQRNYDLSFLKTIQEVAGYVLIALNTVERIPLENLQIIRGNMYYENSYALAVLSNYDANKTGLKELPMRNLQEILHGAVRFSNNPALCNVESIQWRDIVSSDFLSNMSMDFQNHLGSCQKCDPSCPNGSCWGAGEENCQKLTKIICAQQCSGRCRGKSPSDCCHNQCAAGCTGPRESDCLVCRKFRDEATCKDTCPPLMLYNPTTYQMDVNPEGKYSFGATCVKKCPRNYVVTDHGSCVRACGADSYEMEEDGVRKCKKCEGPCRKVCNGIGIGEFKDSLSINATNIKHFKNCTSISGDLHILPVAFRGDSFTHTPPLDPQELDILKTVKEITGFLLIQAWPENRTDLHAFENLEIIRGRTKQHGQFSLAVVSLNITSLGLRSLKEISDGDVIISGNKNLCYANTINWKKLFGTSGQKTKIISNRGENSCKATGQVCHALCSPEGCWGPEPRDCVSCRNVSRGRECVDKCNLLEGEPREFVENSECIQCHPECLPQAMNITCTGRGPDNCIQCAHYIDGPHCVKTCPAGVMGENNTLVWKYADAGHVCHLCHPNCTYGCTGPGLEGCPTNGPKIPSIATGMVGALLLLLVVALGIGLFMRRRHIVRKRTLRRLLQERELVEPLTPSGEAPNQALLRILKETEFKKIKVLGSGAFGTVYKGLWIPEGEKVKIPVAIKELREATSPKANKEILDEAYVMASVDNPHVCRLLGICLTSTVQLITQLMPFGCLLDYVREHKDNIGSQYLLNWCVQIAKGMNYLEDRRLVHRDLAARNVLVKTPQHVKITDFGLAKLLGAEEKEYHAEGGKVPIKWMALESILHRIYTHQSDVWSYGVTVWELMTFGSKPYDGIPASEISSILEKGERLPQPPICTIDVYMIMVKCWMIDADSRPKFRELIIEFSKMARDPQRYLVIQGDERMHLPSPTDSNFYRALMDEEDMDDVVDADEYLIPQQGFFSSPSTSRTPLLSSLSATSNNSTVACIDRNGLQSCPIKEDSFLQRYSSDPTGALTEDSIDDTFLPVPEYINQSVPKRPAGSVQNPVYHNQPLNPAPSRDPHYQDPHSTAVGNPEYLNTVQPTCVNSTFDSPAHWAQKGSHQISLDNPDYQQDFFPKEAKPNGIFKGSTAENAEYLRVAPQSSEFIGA", "assay": "In vitro enzyme activity, HER1 (radiometric, Eurofins)", "assay_type": "biochemical", "conditions": "conclusion", "experimental": "(§1) The purpose of this assay is to detect the in vitro inhibitory activity of compounds on HER1(ErbB1), HER2(ErbB2), and HER4(ErbB4). The enzymes used in this assay are human ErbB 1, ErbB2 and ErbB4. Eurofins Pharma Discovery Service provided the method for activity detection. Steps and method of the assay (96-well plate): A buffer solution of the assay compounds in a dilution of 5-fold (5 μL), polypeptide substrate poly(Glu, Tyr) (4:1) (2.5 μL), ErbB (4-20 ng, 2.5 μL), MnCl2 (50 mM, 1.25 μL), dH2O (3.75 μL), and [γ-^33P]ATP (10 μL) were added, and incubated at 30° C. for 10 minutes. The reaction was terminated by adding 3% phosphoric acid. 10 μL of the sample was taken and transferred to Filtermate A. The filter disc was washed 3 times with 75 mM phosphoric acid and once with methanol. The filter disc was transferred to a sealed plastic bag and the scintillation mixture (4 mL) was added. The intensity of the emitted photon was detected by a scintillation luminescence counter. The CPM (times/min) of the enzyme sample was compared with the CPM of the internal control sample. The level of photon intensity reflected the degree of the tyrosine kinase activity."}, "[2]": {"molecular_target": "HER2(ErbB2) (Homo sapiens, UniProt P04626)", "sequence (P04626 23-1255)": "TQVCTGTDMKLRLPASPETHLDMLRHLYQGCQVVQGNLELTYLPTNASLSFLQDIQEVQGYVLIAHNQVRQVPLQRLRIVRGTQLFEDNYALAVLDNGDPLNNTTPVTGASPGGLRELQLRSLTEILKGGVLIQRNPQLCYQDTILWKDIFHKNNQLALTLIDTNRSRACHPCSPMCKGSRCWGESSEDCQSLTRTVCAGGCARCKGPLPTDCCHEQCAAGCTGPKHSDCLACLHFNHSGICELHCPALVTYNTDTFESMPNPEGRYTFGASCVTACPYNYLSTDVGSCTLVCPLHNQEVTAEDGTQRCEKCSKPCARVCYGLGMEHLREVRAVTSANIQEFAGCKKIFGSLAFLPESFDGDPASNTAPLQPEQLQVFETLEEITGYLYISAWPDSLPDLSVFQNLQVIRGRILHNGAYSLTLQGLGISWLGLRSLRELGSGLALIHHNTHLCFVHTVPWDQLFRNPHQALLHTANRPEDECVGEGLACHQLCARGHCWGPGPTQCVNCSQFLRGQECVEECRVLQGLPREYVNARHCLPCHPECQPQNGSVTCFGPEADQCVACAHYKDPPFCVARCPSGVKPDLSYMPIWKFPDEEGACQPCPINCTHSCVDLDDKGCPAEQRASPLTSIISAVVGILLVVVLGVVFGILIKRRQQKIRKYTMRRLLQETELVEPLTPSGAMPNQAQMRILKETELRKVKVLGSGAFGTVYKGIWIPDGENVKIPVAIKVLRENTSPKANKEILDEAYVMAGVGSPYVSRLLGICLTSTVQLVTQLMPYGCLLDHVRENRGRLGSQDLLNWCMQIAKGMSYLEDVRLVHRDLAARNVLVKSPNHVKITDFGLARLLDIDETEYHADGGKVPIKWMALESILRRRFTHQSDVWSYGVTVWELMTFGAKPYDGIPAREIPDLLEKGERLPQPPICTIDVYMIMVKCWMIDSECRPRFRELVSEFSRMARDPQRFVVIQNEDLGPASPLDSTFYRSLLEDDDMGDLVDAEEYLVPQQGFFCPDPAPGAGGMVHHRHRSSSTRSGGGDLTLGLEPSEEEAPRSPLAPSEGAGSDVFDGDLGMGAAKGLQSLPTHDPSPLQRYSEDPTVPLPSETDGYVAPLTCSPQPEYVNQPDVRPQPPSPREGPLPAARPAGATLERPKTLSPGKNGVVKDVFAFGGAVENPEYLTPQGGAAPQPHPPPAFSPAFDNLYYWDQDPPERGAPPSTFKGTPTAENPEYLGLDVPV", "assay": "In vitro enzyme activity, HER2 (radiometric, Eurofins)", "assay_type": "biochemical", "conditions": "conclusion", "experimental": "as §1"}, "[3]": {"tested_on": "OE21 cell", "assay": "Inhibition of cell proliferation, Cell-Titer-Glo, OE21", "assay_type": "cell-based, human", "conditions": "conclusion", "description": "Purpose of the assay: the inhibitory activity of the assay compounds on cell proliferation was detected. Principle of the assay: the luciferase in a Cell-Titer-Glo reagent produces oxidized luciferin with luciferin, oxygen and ATP as reaction substrates, and releases energy in the form of light. Since the luciferase reaction requires ATP, the total amount of light generated by the reaction is proportional to the total amount of ATP that reflects cell viability. Cell line: NCI-N87 cell line (ATCC-CRL-5822), BT-474 cell line (ATCC-HTB-20), OE21 (ECACC-96062201) Cell culture medium: […] L-[…]×, Gibco#25030-081; penicillin-streptomycin Hyclone# SV30010) Cell Titer-Glo® cell viability assay kit with luminescence (Promega #G7573) 384-well cell culture plate (Greiner # 781090) Compound plate (LABCYTE # LP-0200) CO2 incubator (Thermo#371) Vi-cell cell counter (Beckman Coulter) According to the schematic diagram of the cell seed plate, cells were seeded in a 384- or 96-well plate at a density of 1000 cells per well and 25 μL per well, and 25 μL of PBS was added to the wells near edge of the place where no cells were seeded. (1) The stock solution of the compounds has a concentration of 10 mM, and the compounds were diluted with DMSO to an initial concentration of 4 mM. […] After 10 minutes, the plate was read on PerkinElmer Envision, and the […] reading time was set to 0.2 second."}, "[4]": {"molecular_target": "T1, CYP1A2 (Homo sapiens, UniProt P05177)", "T1 construct": "in the assay of CYP enzyme activity in human liver microsome; from tissue; host or cells: human liver microsome", "T1 sequence (P05177 1-516)": "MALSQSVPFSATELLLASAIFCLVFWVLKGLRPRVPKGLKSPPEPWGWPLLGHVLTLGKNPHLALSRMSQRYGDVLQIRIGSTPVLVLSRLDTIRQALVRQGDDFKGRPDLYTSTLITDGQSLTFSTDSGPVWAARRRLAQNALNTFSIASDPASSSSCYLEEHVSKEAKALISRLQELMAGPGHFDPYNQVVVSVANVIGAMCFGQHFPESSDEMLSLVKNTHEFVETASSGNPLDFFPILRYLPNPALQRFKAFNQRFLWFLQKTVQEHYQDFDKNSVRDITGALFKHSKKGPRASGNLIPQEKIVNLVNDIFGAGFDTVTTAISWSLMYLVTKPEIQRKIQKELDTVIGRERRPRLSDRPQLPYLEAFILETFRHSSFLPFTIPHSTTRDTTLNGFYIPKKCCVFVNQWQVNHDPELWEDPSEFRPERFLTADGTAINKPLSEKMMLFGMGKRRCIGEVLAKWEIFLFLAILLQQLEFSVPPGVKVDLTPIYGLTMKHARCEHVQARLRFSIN", "assay": "Inhibition of CYP enzyme activity in human liver microsome, CYP1A2", "assay_type": "in vitro ADME", "conditions": "microsomes", "description": "(§2) The results of the compound disclosed herein and the reference compound Poziotinib in the assay of CYP enzyme activity in human liver microsome were shown in the following table (Table 17)."}, "[5]": {"molecular_target": "T2, CYP2C9 (Homo sapiens, UniProt P11712)", "T2 construct": "in the assay of CYP enzyme activity in human liver microsome; from tissue; host or cells: human liver microsome", "T2 sequence (P11712 whole entry)": "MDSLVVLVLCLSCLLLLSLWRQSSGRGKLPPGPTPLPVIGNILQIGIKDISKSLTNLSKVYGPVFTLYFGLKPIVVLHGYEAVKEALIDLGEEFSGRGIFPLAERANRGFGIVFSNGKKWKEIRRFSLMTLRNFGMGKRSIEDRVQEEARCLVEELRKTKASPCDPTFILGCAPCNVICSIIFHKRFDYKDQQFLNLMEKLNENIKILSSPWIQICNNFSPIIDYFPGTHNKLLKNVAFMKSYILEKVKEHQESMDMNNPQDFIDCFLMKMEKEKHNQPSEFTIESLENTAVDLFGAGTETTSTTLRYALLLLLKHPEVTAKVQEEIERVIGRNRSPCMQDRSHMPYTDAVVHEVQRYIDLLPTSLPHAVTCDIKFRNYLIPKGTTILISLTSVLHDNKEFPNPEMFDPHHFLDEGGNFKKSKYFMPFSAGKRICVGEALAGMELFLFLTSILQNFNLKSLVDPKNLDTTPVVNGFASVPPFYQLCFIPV", "assay": "Inhibition of CYP enzyme activity in human liver microsome, CYP2C9", "assay_type": "in vitro ADME", "conditions": "versus Poziotinib", "description": "as §2"}}}
{"smiles": "C=CC(=O)N1[C@@H]2CC[C@H]1C[C@H](Nc1cc3c(Nc4ccc(Cl)c(Cl)c4F)ncnc3cc1OC)C2", "note": "[Compound of formula (I)]", "values": [{"measurement": "inhibitory activity on HER1 (in words)", "setting": "[1]", "value": "significant inhibitory activity"}, {"measurement": "inhibitory activity on HER2 (in words)", "setting": "[2]", "value": "significant inhibitory activity"}, {"measurement": "inhibitory activity on the proliferation of OE21 cells (in words)", "setting": "[3]", "value": "significant inhibitory activity"}, {"measurement": "inhibitory activity on CYP1A2 (in words)", "setting": "[4]", "value": "no inhibitory activity"}, {"measurement": "activity on CYP2C9, times better than the reference compound", "setting": "[5]", "value": 2, "unit": "times"}]}
